In patent US20240368122A1, “JAK2 INHIBITORS AND METHODS OF USE THEREOF” (RELAY THERAPEUTICS, INC., priority 2021, published 2024):
Read-outs that look alike come from different tables or passages of the source.

What was measured:
[1] = system: TF1 JAK2 V617F STAT5 reporter; experiment: Cellular TF1 STAT5 assay (luciferase reporter), JAK2 V617F; type: cell-based; conditions: read-out: Cell PD TF1 V617F STAT5 (IC50)
In short: (§1)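 TF1 erythroleukemia cells expressing V617F JAK2 with a STAT3 or STAT5 luciferase reporter were seeded at 10,000 cells/well onto compound (10-point, 1:3 dilutions; 10 mM top stock at 1000×) and incubated 18-20 h at 37 °C, 5% CO2. Luminescence was read after ONE-glo addition, 10 min at room temperature.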

[2] = biological target: T1, JAK2 JH2 WT (V536-D812) [W659A, W777A, F794H solubilizing mutations] (Homo sapiens, UniProt O60674, F794H/W659A/W777A); experiment: Surface Plasmon Resonance (SPR) binding assay, JAK2 JH2 domain
T1 construct: **JAK2 JH2 WT (V536-D812) [W659A, W777A, F794H solubilizing mutations]; C-thrombin-avi-His6; thrombin cleavage site (C); His6 (C); purchased Biortus
T1 sequence (O60674 536-812 W659A/W777A/F794H): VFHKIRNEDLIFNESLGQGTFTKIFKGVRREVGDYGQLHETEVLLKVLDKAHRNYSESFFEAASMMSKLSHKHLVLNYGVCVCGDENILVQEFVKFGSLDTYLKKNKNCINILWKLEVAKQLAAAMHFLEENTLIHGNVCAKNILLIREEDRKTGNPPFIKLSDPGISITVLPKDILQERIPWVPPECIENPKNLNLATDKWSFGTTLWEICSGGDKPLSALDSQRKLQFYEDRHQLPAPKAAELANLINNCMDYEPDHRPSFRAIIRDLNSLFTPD
In short: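 Kinetics came from 1:1 fits of single-cycle runs at 20 °C: four 3-fold dilutions from 5 uM for JH1 or 500 nM for JH2, 60 s association, and 300 s or 1200 s dissociation respectively. Protein was freshly captured per compound in the presence of 10 uM stabilizer compound, with running buffer of pH 7.5 HEPES/NaCl/glycerol/DTT plus 2% DMSO.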

[3] = system: TF1 JAK2 V617F STAT3 reporter; experiment: Cellular TF1 STAT3 assay (luciferase reporter), JAK2 V617F; type: cell-based; conditions: read-out: Cell PD-TF1 JAK2 V617F STAT3 (IC50)
In short: as §1

[4] = Homo sapiens, TF-1, TF1 cells, JAK2 V617F

IC50 ([1]; TF1 JAK2 V617F) [nM]	Kd ([2]; SPR, JAK2 JH2 domain) [nM]	IC50 ([3]; TF1 JAK2 V617F) [nM]	IC50 [1, 4] [nM]	IC50 [3, 4] [nM]	Kd [2] [nM]	SMILES
5000 to 100000	0.01 to 10	5000 to 100000				CNC(=O)c1nnc(NC(=O)C2CC2)cc1Nc1cccc(-c2ccc(C(=O)N(C)C(C)c3nc(C)no3)nc2)c1OC (stereo not drawn) [Compound 50]
	0.01 to 10		50 to 500	50 to 500		[2H]C([2H])(c1cccc(C#N)n1)N1CC(n2cc(-c3cccc(Nc4cc(NC(=O)C5CC5)nnc4C(=O)NC)c3OC)cn2)C1 [Compound 409]
			50 to 500	50 to 500	0.01 to 10	CNC(=O)c1nnc(NC(=O)C2CC2)cc1Nc1cccc(-c2cnn(C3CN(Cc4cccn5ccnc45)C3)c2)c1OC [Compound 373]
5000 to 100000	10 to 50	500 to 5000				CNC(=O)c1nnc(NC(=O)C2CC2)cc1Nc1cccc(-c2ccc(C(=O)N(C)C[C@H]3Cc4ccccc4CO3)nc2)c1OC (single isomer, unassigned) [Compound 139]
	0.01 to 10		50 to 500	500 to 5000		CNC(=O)c1nnc(NC(=O)C2CC2)cc1Nc1cccc(-c2cnn([C@H]3C[C@@H]([C@H](O)c4ccccn4)C3)c2)c1OC (single isomer, unassigned) [Compound 399]
50 to 500	0.01 to 10	50 to 500				CNC(=O)c1nnc(NC(=O)C2CC2)cc1Nc1cccc(-c2cnn(C3CN(Cc4csnn4)C3)c2)c1OC [Compound 173]
500 to 5000	0.01 to 10	500 to 5000				CNC(=O)c1nnc(NC(=O)C2CC2)cc1Nc1cccc(-c2ccc(C(=O)N(C)Cc3cnsc3)nc2)c1OC [Compound 195]
500 to 5000	10 to 50	500 to 5000				CNC(=O)c1nnc(NC(=O)C2CC2)cc1Nc1cccc(-c2ccc(C(=O)N(C)Cc3ccc(N(C)C)nc3)nc2)c1OC [Compound 93]
50 to 500	0.01 to 10	50 to 500				CNC(=O)c1nnc(NC(=O)C2CC2)cc1Nc1cccc(-c2cnc(C(=O)N(C)Cc3nn(C)cc3Br)nc2)c1OC [Compound 56]
500 to 5000	0.01 to 10	500 to 5000				CNC(=O)c1nnc(NC(=O)C2CC2)cc1Nc1cccc(-c2ccc(C(=O)N(C)Cc3cn(C)nn3)nc2)c1OC [Compound 100]
500 to 5000	0.01 to 10	500 to 5000				CNC(=O)c1nnc(NC(=O)C2CC2)cc1Nc1cccc(-c2ccc(C(=O)N(C)Cc3cccnn3)nc2)c1OC [Compound 45]
500 to 5000	0.01 to 10	5000 to 100000				CNC(=O)c1nnc(NC(=O)C2CC2)cc1Nc1cccc(-c2ccc(C3CN(Cc4ccccn4)C3)nc2)c1OC [Compound 182]
50 to 500	0.01 to 10	50 to 500				CNC(=O)c1nnc(NC(=O)C2CC2)cc1Nc1cc(F)cc(-c2ccc(C(=O)N(C)Cc3cc(C#N)ccn3)nc2)c1OC [Compound 112]
			50 to 500	50 to 500	0.01 to 10	CNC(=O)c1nnc(NC(=O)C2CC2)cc1Nc1cccc(-c2cnn(C3CN(Cc4cccn(C(F)F)c4=O)C3)c2)c1OC [Compound 251]
			500 to 5000	5000 to 100000	0.01 to 10	CNC(=O)c1nnc(NC(=O)OC2CC2)cc1Nc1cccc(-c2cnn(C3CC(Oc4cccc(C#N)n4)C3)c2)c1OC (mixture of isomers) [Compound 345]
500 to 5000	0.01 to 10	50 to 500				[2H]C([2H])([2H])NC(=O)c1nnc(NC(=O)C2CC2)cc1Nc1cccc(-c2ccc(C(=O)N(C)Cc3ccn(C)n3)nc2)c1OC [Compound 79]
50 to 500	0.01 to 10	50 to 500				CNC(=O)c1nnc(NC(=O)C2CC2)cc1Nc1cccc(-c2ccc(C(=O)N(C)Cc3cn(C)nc3C)nc2)c1OC [Compound 101]
			5000 to 100000	5000 to 100000	10 to 50	CNC(=O)c1nnc(NC(=O)C2CC2)cc1Nc1cccc(-c2ccc(C(=O)N(C)C[C@H]3CCCC3(F)F)cc2)c1OC (single isomer, unassigned) [Compound 206]
500 to 5000	0.01 to 10	500 to 5000				CNC(=O)c1nnc(NC(=O)C2CC2)cc1Nc1cccc(-c2ccc(C(=O)N(C)Cc3ccn(C)n3)c(F)c2)c1OC [Compound 132]
			50 to 500	50 to 500	0.01 to 10	CNC(=O)c1nnc(NC(=O)C2CC2)cc1Nc1cccc(-c2cnn(C3CN(Cc4cccc(Br)n4)C3)c2)c1OC [Compound 201]
			5000 to 100000	5000 to 100000	10 to 50	CNC(=O)c1nnc(NC(=O)C2CC2)cc1Nc1cccc(-c2cncc(C3CN(Cc4ccccn4)C3)c2)c1OC [Compound 280]

IC50 ([1]; TF1 JAK2 V617F) [nM]	Kd ([2]; SPR, JAK2 JH2 domain) [nM]	IC50 ([3]; TF1 JAK2 V617F) [nM]	IC50 [1, 4] [nM]	IC50 [3, 4] [nM]	Kd [2] [nM]	SMILES
5000 to 100000	10 to 50	500 to 5000				CNC(=O)c1nnc(NC(=O)C2CC2)cc1Nc1cccc(-c2ccc(C(=O)N(C)Cc3cncs3)nc2)c1OC [Compound 60]
5000 to 100000	10 to 50	5000 to 100000				CNC(=O)c1nnc(NC(=O)C2CC2)cc1Nc1cccc(-c2ccc(C(=O)N(C)C[C@@H]3CCCO3)nc2)c1OC (single isomer, unassigned) [Compound 140]
500 to 5000	0.01 to 10	500 to 5000				CNC(=O)c1nnc(NC(=O)C2CC2)cc1Nc1cccc(-c2cnn(C3CN(Cc4nnc(C)s4)C3)c2)c1OC [Compound 144]
			5000 to 100000	5000 to 100000	50 to 500	CNC(=O)c1nnc(NC(=O)C2CC2)cc1Nc1cccc(-c2ccc(C3CN(Cc4cccnc4C(F)F)C3)nc2)c1OC [Compound 288]
			500 to 5000	500 to 5000	0.01 to 10	CNC(=O)c1nnc(NC(=O)C2CC2)cc1Nc1cccc(-c2cnn(C3CN(Cc4cccc(C(C)=O)n4)[C@H]3C)c2)c1OC (stereo partly drawn) [Compound 377]
			50 to 500	50 to 500	0.01 to 10	CNC(=O)c1nnc(NC(=O)C2CC2)cc1Nc1cccc(-c2cnn(C3CN(Cc4cccc5ncnn45)C3)c2)c1OC [Compound 248]
5000 to 100000	10 to 50	5000 to 100000				CNC(=O)c1nnc(NC(=O)C2CC2)cc1Nc1cccc(-c2ccc(C(=O)N(C)[C@H](C)c3cnn(C)c3)nc2)c1OC (single isomer, unassigned) [Compound 115]
50 to 500	0.01 to 10	50 to 500				CNC(=O)c1nnc(NC(=O)C2CC2)cc1Nc1cccc(-c2ccc(C(=O)N(C)Cc3c(C)nn(C)c3C)nc2)c1OC [Compound 168]
			500 to 5000	500 to 5000	0.01 to 10	CNC(=O)c1nnc(NC(=O)C2CC2)cc1Nc1cccc(-c2cnn(C3CN(Cc4ncccc4C(=O)N(C)C)C3)c2)c1OC [Compound 299]
50 to 500	0.01 to 10	50 to 500				CNC(=O)c1nnc(NC(=O)C2CC2)cc1Nc1cccc(-c2cnn(C3CN(Cc4cc(C)ccn4)C3)c2)c1OC [Compound 111]
50 to 500	0.01 to 10	50 to 500				CNC(=O)c1nnc(NC(=O)C2CC2)cc1Nc1cccc(-c2ccc(C(=O)N(C)Cc3cscn3)nc2)c1OC [Compound 57]
			500 to 5000	500 to 5000	0.01 to 10	CNC(=O)c1nnc(NC(=O)C2CC2)cc1Nc1cccc(-c2cn([C@@H]3CN(Cc4cccc(C)n4)[C@H]3C)nn2)c1OC (stereo in doubt) [Compound 238]
			500 to 5000	500 to 5000	0.01 to 10	CNC(=O)c1nnc(NC(=O)C2CC2)cc1Nc1cccc(-c2cnc(C3CN(Cc4cccc(C#N)n4)C3)nc2)c1OC [Compound 305]
			10 to 50	10 to 50	0.01 to 10	CNC(=O)c1nnc(NC(=O)C2CC2)cc1Nc1cccc(-c2cnn(C3CN(Cc4cccc(C(=O)N(C)C)n4)C3)c2)c1OC [Compound 275]
			50 to 500	50 to 500	0.01 to 10	CC#Cc1cccc(CN2CC(n3cc(-c4cccc(Nc5cc(NC(=O)C6CC6)nnc5C(=O)NC)c4OC)cn3)C2)n1 [Compound 281]
			500 to 5000	500 to 5000	0.01 to 10	CNC(=O)c1nnc(NC(=O)C2CC2)cc1Nc1cccc(-c2cnn([C@H]3CCN(Cc4ccccn4)C3)c2)c1OC (single isomer, unassigned) [Compound 333]
			500 to 5000	500 to 5000	0.01 to 10	CNC(=O)c1nnc(NC(=O)C2CC2)cc1Nc1cccc(-c2ccc(C(=O)N(C)Cc3ncc(COC4CC4)s3)nc2)c1OC [Compound 362]
5000 to 100000	0.01 to 10	500 to 5000				CNC(=O)c1nnc(NC(=O)C2CC2)cc1Nc1cccc(-c2ccc(C(=O)N(C)Cc3ccon3)nc2)c1OC [Compound 99]
			500 to 5000	500 to 5000	10 to 50	CNC(=O)c1nnc(NC(=O)C2CC2)cc1Nc1cccc(-c2cnn(C3CN(Cc4cccc5nncn45)C3)c2)c1OC [Compound 313]
			500 to 5000	500 to 5000	0.01 to 10	COc1c(Nc2cc(NC(=O)C3CC3)nn3cc(C)nc23)cccc1-c1cnn(C2CN(Cc3ccccn3)C2)c1 [Compound 204]
